Experimental data from US8148427B2, “Benzylamine derivative or pharmaceutically acceptable acid addition salt thereof, and use thereof for medical purposes” (Toray Industries, Inc., priority 2007, dated 2012).
pEC50: −log10 of the molar value. Like-named read-outs stand apart in the source and are kept apart here. Marks after values point to notes of the source that are not given here.

What was measured:
female Spague-Dawley rat [1] = assay: Effect on cardiovascular system in anesthetized rats; format: in vivo; settings: cumulative, 30 minutes, relative to before administration
Procedure: (§1) This method was carried out in accordance with the literature [Experimental Methods in Pharmacology, 5th Revised Edition, p. 168, KYODO ISHO SHUPPAN CO., LTD.]
Each female Spague-Dawley rat was anesthetized with urethane, and a polyethylene cannula was inserted into the left common carotid artery and fixed therein, to measure the mean blood pressure and the heart rate. […] Data were represented as amounts of the changes (blood pressure: mmHg, heart rate: %) relative to values before the administration (number of cases: 3 to 8/group).

female Spague-Dawley rat [2] = assay: Effect on cardiovascular system in conscious rats; format: in vivo; settings: 30 minutes, relative to before administration
Procedure: as §1
Each female Spague-Dawley rat was anesthetized with ether, and a polyethylene cannula was inserted into the left common carotid artery and fixed therein, followed by subcutaneously indwelling a cannula for drug administration. After recovery from anesthesia, the mean blood pressure and the heart rate were measured under free moving conditions.

female Spague-Dawley rat [3] = assay: Number of voiding episodes in rat natural voiding behavior test; format: in vivo; settings: 1 hour after administration
Procedure: This method was carried out according to the literature [Jpn. J. Pharmacol., 87, 27 (2001)]. Each female Spague-Dawley rat was placed in a urine collection cage, and an electronic balance was placed under the cage. Excreted urine was allowed to fall into a urine collection tray placed on the electronic balance, and its change in weight every 10 seconds was scaled with time through a personal computer. Not less than 0.1 g of the change in weight was regarded as indicative of urination, and the weight of 1 g was regarded as corresponding to 1 mL of urine. Drug administration was carried out subcutaneously, and the number of voiding episodes was measured for 1 hour before and after the drug administration, to observe its change (number of cases: 11 to 18/group).
Significant difference test was carried out by student's-test or williams test, wherein a significance level of less than 5% was accepted as significant (* in the table).

female Spague-Dawley rat [4] = assay: as above; format: in vivo; settings: 3 hours after the administration
[5] = system: isolated bladder smooth muscle; assay: Relaxing activity against isolated bladder smooth muscle in human; settings: relaxation by 10 μM forskolin = 100%
Procedure: This method was carried out in accordance with the literature [J. Urology, 165, 240 (2001)].
A normal part (non-cancerous part) of the bladder removed from a human male (32-72 years old) by bladder cancer surgery was used. A bladder section sizing about 3×10 mm was prepared in the nutrient solution (Krebs solution [NaCl 118 mM; KCl 4.7 mM; NaH2PO4 1.2 mM; glucose 10 mM; NaHCO3 25 mM; MgCl2.7H2O 1.2 mM; CaCl2.2H2O 2.5 mM]) sufficiently oxygenated with 95% O2+5% CO2. The sample was suspended in a Magnus tube filled with the nutrient solution (Krebs solution) aerated with 95% O2+5% CO2 at 37° C., and stabilized under a load of 0.5 g for 60 minutes or longer. The resting tension of the bladder sample was recorded in a pen recorder through a tension transducer. The test compound was cumulatively applied about every 10 minutes. The test compound was dissolved in distilled water or aqueous 10% DMSO solution (number of cases: 3 to 4/group).

[6] = system: isolated bladder smooth muscle; assay: Relaxing activity test against isolated bladder smooth muscle in rat; settings: resting tension of isolated rat bladder; relaxation by 10 μM forskolin = 100%
Procedure: This method was carried out in accordance with the literature [J. Pharmacol. Exp. Ther., 293, 939 (2000)]. Each bladder was isolated from a normal Spague-Dawley rat, and a bladder section of the size of about 2×10 mm was prepared in the nutrient solution (Krebs solution [NaCl 118 mM; KCl 4.7 mM; NaH2PO4 1.1 mM; glucose 10 mM; NaHCO3 25 mM; MgCl2.7H2O 1 mM; CaCl2.2H2O 2.5 mM]) sufficiently oxygenated with 95% O2+5% CO2. The sample was suspended in a Magnus tube filled with the nutrient solution (Krebs solution) aerated with 95% O2+5% CO2 at 37° C., and stabilized under a load of 0.5 g for 60 minutes or longer. The resting tension of the bladder sample was recorded in a pen recorder through a tension transducer. The test compound was cumulatively applied about every 10 minutes. […] The test compound was dissolved in distilled water or aqueous 10% dimethylsulfoxide solution.

[7] = molecular target: T1, human adrenergic β3 receptor (Homo sapiens, UniProt P13945); assay: Agonistic activity (cAMP production) against human adrenergic β3 receptor in SK-N-MC cells; format: cell-based; settings: for EC50: SK-N-MC cells, cAMP, with CGP-20712A 1 μM, 100 or 300 nM Isoproterenol = 100%, tested up to 10 μM, read-out: β3 (logarithm of the 50% reaction concentration) (converted)
T1 construct: evaluated using SK-N-MC cells in the presence of a selective adrenergic β1 receptor antagonist; endogenous in cells; host or cells: SK-N-MC cells
T1 sequence (P13945 whole entry): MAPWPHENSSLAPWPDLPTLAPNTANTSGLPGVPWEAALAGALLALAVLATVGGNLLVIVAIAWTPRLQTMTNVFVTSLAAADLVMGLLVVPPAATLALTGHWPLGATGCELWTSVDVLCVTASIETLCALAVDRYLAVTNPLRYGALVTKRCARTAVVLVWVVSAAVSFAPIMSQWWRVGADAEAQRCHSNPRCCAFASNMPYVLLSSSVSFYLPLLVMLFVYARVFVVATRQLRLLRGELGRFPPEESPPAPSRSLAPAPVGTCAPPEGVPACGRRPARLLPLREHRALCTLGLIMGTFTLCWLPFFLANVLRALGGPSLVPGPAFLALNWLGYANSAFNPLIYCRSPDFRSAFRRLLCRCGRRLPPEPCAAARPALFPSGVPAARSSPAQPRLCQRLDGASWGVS
Procedure: (§2) This method was carried out according to the literature [J. Pharmacol. Exp. Ther., 271, 1253 (1994)] or [Naunyn-Schmiedeberg's Arch. Pharmacol., 369, 151 (2004)], using the amount of the production of cAMP as an index. The agonistic activity against human adrenergic β3 receptor was evaluated using SK-N-MC cells in the presence of a selective adrenergic β1 receptor antagonist (CGP-20712A, 1 μM). Evaluation of the agonistic activities against human adrenergic β2 and β1 receptors was carried out using CHO-K1 cells forcibly-expressed each receptor. Their cells were cultured in a culture flask. In assay day, they were detached and collected with EDTA, followed by dispensing in a 384-well plate so as to attain 10,000 cells/well. The test compound of each concentration was added to each well and allowed to react in a CO2 incubator at 37° C. for 30 minutes, followed by quantification of the produced cAMP using cAMP detection kit (Perkinelmer). The logarithm of the 50% reaction concentration of each test compound was calculated taking the reaction by 100 or 300 nM Isoproterenol as 100%. The test drug was added up to 10 μM, and in cases where reaction of not less than 50% was not observed at this concentration, the result was represented as n.d. (not detected).

[8] = molecular target: T2, human adrenergic β2 receptor (Homo sapiens, UniProt P07550); assay: Agonistic activity (cAMP production) against human adrenergic β2 receptor in CHO-K1 cells; format: cell-based
T2 construct: expressed in transfected cells; host or cells: CHO-K1 cells
T2 sequence (P07550 whole entry): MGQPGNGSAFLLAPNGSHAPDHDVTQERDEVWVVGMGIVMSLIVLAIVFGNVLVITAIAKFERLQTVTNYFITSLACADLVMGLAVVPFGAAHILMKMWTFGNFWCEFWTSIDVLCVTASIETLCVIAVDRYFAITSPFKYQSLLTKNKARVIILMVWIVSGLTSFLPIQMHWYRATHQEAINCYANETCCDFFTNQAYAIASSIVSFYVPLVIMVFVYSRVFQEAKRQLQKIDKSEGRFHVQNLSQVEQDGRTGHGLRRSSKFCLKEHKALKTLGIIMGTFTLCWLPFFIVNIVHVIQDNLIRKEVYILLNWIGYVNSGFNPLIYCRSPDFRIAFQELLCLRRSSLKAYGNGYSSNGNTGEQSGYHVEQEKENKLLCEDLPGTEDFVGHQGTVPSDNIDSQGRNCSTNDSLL
Procedure: as §2

SMILES	Change in Blood Pressure (female Spague-Dawley rat [1]; 3 mg/kg subcutaneously)	Number of Voiding Episodes (female Spague-Dawley rat [3]; 3 mg/kg subcutaneously)	pEC50 [5]	pEC50 [6]	EC50 [7]	pEC50 [7]	further results
Nc1nc(CC(=O)Nc2ccc(CCNC[C@H](O)c3ccccc3)cc2)cs1 [Compound 11, reference compound]	−17.1 ± 3.5 mmHg	0.67 ± 0.19	–	–	–	–	Change in Heart Rate (female Spague-Dawley rat [1]; 3 mg/kg subcutaneously, 3 mg/kg): 133.5 ± 8.2 %; Change in Blood Pressure (female Spague-Dawley rat [2]; 3 mg/kg subcutaneously): −22.5 ± 5.6 mmHg; Number of Voiding Episodes (female Spague-Dawley rat [3]; 3 mg/kg subcutaneously, listed as compound 11): did not show a significant effect; effect of decreasing the frequency of voiding episodes (female Spague-Dawley rat [4]): significant effect
COc1cc(CN[C@@H](C)[C@H](O)c2ccc(O)c(NS(C)(=O)=O)c2)cc(OC)c1 [Example 1, N-(5-((1R,2S)-2-(3,5-Dimethoxybenzylamino)-1-hydroxypropyl)-2-hydroxyphenyl)methane-sulfonamide]	−25.0 ± 3.6 mmHg	–	6.25	6.64	0.0398 µM	–	Change in Blood Pressure (female Spague-Dawley rat [1]; 0.3 mg/kg subcutaneously): −25.2 ± 4.7 mmHg; Change in Heart Rate (female Spague-Dawley rat [1]; 0.3 mg/kg subcutaneously): 121.7 ± 4.2%; Change in Blood Pressure (female Spague-Dawley rat [1]; 1 mg/kg subcutaneously): −25.4 ± 2.3 mmHg; Change in Heart Rate (female Spague-Dawley rat [1]; 1 mg/kg subcutaneously): 126.4 ± 5.1%; Change in Heart Rate (female Spague-Dawley rat [1]; 3 mg/kg subcutaneously): 135.2 ± 8.4%; Change in Blood Pressure (female Spague-Dawley rat [2]; 0.3 mg/kg subcutaneously): −6.5 ± 5.5 mmHg; Change in Heart Rate (female Spague-Dawley rat [2]; 0.3 mg/kg subcutaneously): 107.7 ± 3.5%; EC50 ([8]; CHO-K1 cells, cAMP, 100 or 300 nM Isoproterenol = 100%, tested up to 10 μM, n.d. = not detected at 10 μM, read-out: β2 (logarithm of the 50% reaction concentration) (converted)): 2.34 µM; Number of Voiding Episodes (female Spague-Dawley rat [3]; 0.1 mg/kg subcutaneously): 1.06 ± 0.17; Number of Voiding Episodes (female Spague-Dawley rat [3]; 0.3 mg/kg subcutaneously): 0.83 ± 0.12*; Number of Voiding Episodes (female Spague-Dawley rat [3]; 1 mg/kg subcutaneously): 0.94 ± 0.17*
C[C@H](NCc1cc(C(F)(F)F)cc(C(F)(F)F)c1)[C@H](O)c1ccc(O)c(NS(C)(=O)=O)c1 [Example 2, N-(5-((1R,2S)-2-(3,5-Bis(trifluoromethyl)benzylamino)-1-hydroxypropyl)-2-hydroxyphenyl)methanesulfonamide]	–	0.45 ± 0.21*	–	7.44	0.0316 µM	–	–
C[C@H](NCc1cc(Cl)cc(Cl)c1)[C@H](O)c1ccc(O)c(NS(C)(=O)=O)c1 [Example 3, N-(5-((1R,2S)-2-(3,5-Dichlorobenzylamino)-1-hydroxypropyl)-2-hydroxyphenyl)methane-sulfonamide]	–	0.50 ± 0.15*	–	7.05	–	7.66	pEC50 [8]: 5.97
COc1cc(CN[C@@H](C)[C@H](O)c2ccc(O)c(NS(C)(=O)=O)c2)cc(OC)c1OC [Example 4, N-(2-Hydroxy-5-((1R,2S)-1-hydroxy-2-(3,4,5-trimethoxybenzylamino)propyl)phenyl)methane-sulfonamide]	–	0.33 ± 0.19*	6.15	7.13	0.0331 µM	–	–
Cc1cc(C)cc(CN[C@@H](C)[C@H](O)c2ccc(O)c(NS(C)(=O)=O)c2)c1 [Example 5, N-(5-((1R,2S)-2-(3,5-Dimethylbenzylamino)-1-hydroxypropyl)-2-hydroxyphenyl)methane-sulfonamide]	–	0.50 ± 0.15*	6.24	6.82	–	7.14	–
